Assay results from patent US6376497B1, “Antifungal azole derivatives having a fluorinated vinyl group and process for preparing same” (Korea Research Institute of Chemical Technology, priority 1999, dated 2002).
In brackets after ≈: the same amount, converted by molar mass.

Tests used:
Assay in all cases: In vitro antifungal activity, microbroth dilution MIC
Format in all cases: cell-based
[1] = tested on: Cryptococcus neoformans B. 42419; details: 4 to 48 hours; for Minimal inhibitory concentration(MIC), Cry. neoformans B. 42419: RPMI-1640, 35° C., no growth observed; for Minimal inhibitory concentration (MIC): Cry. neoformans B. 42419, RPMI-1640, 35° C.
How it was run: (§1)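 Broth microdilution adapted from NCCLS M27, in RPMI-1640 with 0.165 M MOPS, pH 7.0. Yeast or mould inoculum at 2×10^3 CFU/ml was mixed 1:1 with DMSO-derived compound solutions (200 to 0.10 μg/ml before mixing) and incubated at 35 °C for 4 to 48 h. MIC was the concentration showing no growth.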

[2] = tested on: Trichophyton mentagrophytes B. 32663; details: for Minimal inhibitory concentration(MIC), T. mentagrophytes B. 32663: RPMI-1640, 35° C., no growth observed; for Minimal inhibitory concentration (MIC): T. mentagrophytes B. 32663, RPMI-1640, 35° C.
How it was run: as §1

[3] = tested on: Torulopsis glabrata B. 16205; details: 4 to 48 hours; for Minimal inhibitory concentration(MIC), T. glabrata B. 16205: RPMI-1640, 35° C., no growth observed; for Minimal inhibitory concentration (MIC): T. glabrata B. 16205, RPMI-1640, 35° C.
How it was run: as §1

[4] = tested on: Candida tropicalis A. 13803; details: 4 to 48 hours; for Minimal inhibitory concentration(MIC), C. tropicalis A. 13803: RPMI-1640, 35° C., no growth observed; for Minimal inhibitory concentration (MIC): C. tropicalis A. 13803, RPMI-1640, 35° C.
How it was run: as §1

[5] = tested on: Candida pseudotropicalis K. 11658; details: 4 to 48 hours; for Minimal inhibitory concentration(MIC), C. pseudotropicalis K. 11658: RPMI-1640, 35° C., no growth observed; for Minimal inhibitory concentration (MIC): C. pseudotropicalis K. 11658, RPMI-1640, 35° C.
How it was run: as §1

[6] = tested on: Aspergillus niger A. 16404; details: for Minimal inhibitory concentration(MIC), A. niger A. 16404: RPMI-1640, 35° C., no growth observed; for Minimal inhibitory concentration (MIC): A. niger A. 16404, RPMI-1640, 35° C.
How it was run: as §1

[7] = tested on: Cryptococcus neoformans IFM. 40092; details: for Minimal inhibitory concentration(MIC), Cry. neoformans IFM. 40092: RPMI-1640, 35° C., no growth observed; for Minimal inhibitory concentration (MIC): Cry. neoformans IFM. 40092, RPMI-1640, 35° C.
How it was run: as §1

[8] = tested on: Cryptococcus neoformans A. 34144; details: for Minimal inhibitory concentration(MIC), Cry. neoformans A. 34144: RPMI-1640, 35° C., no growth observed; for Minimal inhibitory concentration (MIC): Cry. neoformans A. 34144, RPMI-1640, 35° C.
How it was run: as §1

[9] = tested on: Candida parapsitosis A. 7330; details: 4 to 48 hours; for Minimal inhibitory concentration(MIC), C. parapsitosis A. 7330: RPMI-1640, 35° C., no growth observed; for Minimal inhibitory concentration (MIC): C. parapsitosis A. 7330, RPMI-1640, 35° C.
How it was run: as §1

[10] = tested on: Trichophyton mentagrophytes A. 9129; details: for Minimal inhibitory concentration(MIC), T. mentagrophytes A. 9129: RPMI-1640, 35° C., no growth observed; for Minimal inhibitory concentration (MIC): T. mentagrophytes A. 9129, RPMI-1640, 35° C.
How it was run: as §1

[11] = tested on: Candida krusei K. 11655; details: 4 to 48 hours; for Minimal inhibitory concentration(MIC), C. krusei K. 11655: RPMI-1640, 35° C., no growth observed; for Minimal inhibitory concentration (MIC): C. krusei K. 11655, RPMI-1640, 35° C.
How it was run: as §1

[12] = tested on: Candida albicans A. 10231; details: 4 to 48 hours; for Minimal inhibitory concentration(MIC), C. albicans A. 10231: RPMI-1640, 35° C., no growth observed; for Minimal inhibitory concentration (MIC): C. albicans A. 10231, RPMI-1640, 35° C.
How it was run: as §1

[13] = tested on: Aspergillus furnigatus B. 19119; details: for Minimal inhibitory concentration(MIC), A furnigatus B. 19119: RPMI-1640, 35° C., no growth observed; for Minimal inhibitory concentration (MIC): A furnigatus B. 19119, RPMI-1640, 35° C.
How it was run: as §1

[14] = tested on: Candida albicans IFO. 1385; details: 4 to 48 hours; for Minimal inhibitory concentration(MIC), C. albicans IFO. 1385: RPMI-1640, 35° C., no growth observed; for Minimal inhibitory concentration (MIC): C. albicans IFO. 1385, RPMI-1640, 35° C.
How it was run: as §1

[15] = tested on: Candida albicans C1-2; details: 4 to 48 hours; for Minimal inhibitory concentration(MIC), C. albicans C1-2: RPMI-1640, 35° C., no growth observed; for Minimal inhibitory concentration (MIC): C. albicans C1-2, RPMI-1640, 35° C.
How it was run: as §1

Minimal inhibitory concentration(MIC), Cry. neoformans B. 42419 [1] [µg/mL] | Minimal inhibitory concentration(MIC), T. glabrata B. 16205 [3] [µg/mL] | Minimal inhibitory concentration(MIC), C. tropicalis A. 13803 [4] [µg/mL] | Minimal inhibitory concentration(MIC), C. pseudotropicalis K. 11658 [5] [µg/mL] | Minimal inhibitory concentration(MIC), C. parapsitosis A. 7330 [9] [µg/mL] | Minimal inhibitory concentration(MIC), C. krusei K. 11655 [11] [µg/mL] | Minimal inhibitory concentration(MIC), C. albicans A. 10231 [12] [µg/mL] | Minimal inhibitory concentration(MIC), C. albicans IFO. 1385 [14] [µg/mL] | Minimal inhibitory concentration(MIC), C. albicans C1-2 [15] [µg/mL] | Minimal inhibitory concentration (MIC) [1] [µg/mL] | Minimal inhibitory concentration (MIC) ([2]; 4 to 48 hours) [µg/mL] | Minimal inhibitory concentration (MIC) [3] [µg/mL] | Minimal inhibitory concentration (MIC) [4] [µg/mL] | Minimal inhibitory concentration (MIC) [5] [µg/mL] | Minimal inhibitory concentration (MIC) ([6]; 4 to 48 hours) [µg/mL] | Minimal inhibitory concentration (MIC) ([7]; 4 to 48 hours) [µg/mL] | Minimal inhibitory concentration (MIC) ([8]; 4 to 48 hours) [µg/mL] | Minimal inhibitory concentration (MIC) [9] [µg/mL] | Minimal inhibitory concentration (MIC) ([10]; 4 to 48 hours) [µg/mL] | Minimal inhibitory concentration (MIC) [11] [µg/mL] | Compound | further results
0.78 | 100 | >100 | 3.13 | 1.56 | 1.56 | >100 | 0.78 | >100 |  |  |  |  |  |  |  |  |  |  |  | Cc1cc(C)cc(C(=C(F)N2CCN(c3ccc(OCC4COC(Cn5ccnc5)(c5ccc(F)cc5F)O4)cc3)CC2)C(F)(F)F)c1 (mixture of isomers) [Ex. 141] | Minimal inhibitory concentration(MIC), T. mentagrophytes B. 32663 [2]: 0.78 µg/mL; Minimal inhibitory concentration(MIC), A. niger A. 16404 [6]: >100 µg/mL; Minimal inhibitory concentration(MIC), Cry. neoformans IFM. 40092 [7]: 0.78 µg/mL; Minimal inhibitory concentration(MIC), Cry. neoformans A. 34144 [8]: 1.56 µg/mL; Minimal inhibitory concentration(MIC), T. mentagrophytes A. 9129 [10]: 6.25 µg/mL; Minimal inhibitory concentration(MIC), A furnigatus B. 19119 [13]: 50.0 µg/mL
 |  |  |  |  |  |  |  |  | 0.78 (≈ 1.61 µM) | 0.78 (≈ 1.61 µM) | 6.25 (≈ 12.9 µM) | 12.5 (≈ 25.8 µM) | 3.13 (≈ 6.47 µM) | 6.25 (≈ 12.9 µM) | 0.39 (≈ 0.806 µM) | 0.78 (≈ 1.61 µM) | 12.5 (≈ 25.8 µM) | 1.56 (≈ 3.22 µM) | 6.25 (≈ 12.9 µM) | FC(=Cc1ccc(Cl)cc1)OCC1COC(Cn2ccnc2)(c2ccc(Cl)cc2Cl)O1 (stereo not drawn) [Ex. 14] | Minimal inhibitory concentration (MIC) [12]: 6.25 µg/mL (≈ 12.9 µM); Minimal inhibitory concentration (MIC) ([13]; 4 to 48 hours): 6.25 µg/mL (≈ 12.9 µM); Minimal inhibitory concentration (MIC) [14]: 0.39 µg/mL (≈ 0.806 µM); Minimal inhibitory concentration (MIC) [15]: 12.5 µg/mL (≈ 25.8 µM)
1.56 | >100 | >100 | >100 | >100 | >100 | >100 | 6.25 | >100 |  |  |  |  |  |  |  |  |  |  |  | FC(OCC1COC(Cn2cncn2)(c2ccc(Cl)cc2Cl)O1)=C(c1ccc(F)cc1)C(F)(F)F (mixture of isomers) [Ex. 87] | Minimal inhibitory concentration(MIC), T. mentagrophytes B. 32663 ([2]; 4 to 48 hours): >100 µg/mL; Minimal inhibitory concentration(MIC), A. niger A. 16404 ([6]; 4 to 48 hours): >100 µg/mL; Minimal inhibitory concentration(MIC), Cry. neoformans IFM. 40092 ([7]; 4 to 48 hours): 0.78 µg/mL; Minimal inhibitory concentration(MIC), Cry. neoformans A. 34144 ([8]; 4 to 48 hours): 1.56 µg/mL; Minimal inhibitory concentration(MIC), T. mentagrophytes A. 9129 ([10]; 4 to 48 hours): >100 µg/mL; Minimal inhibitory concentration(MIC), A furnigatus B. 19119 ([13]; 4 to 48 hours): >100 µg/mL
 |  |  |  |  |  |  |  |  | 1.56 (≈ 3.07 µM) | 1.56 (≈ 3.07 µM) | 12.5 (≈ 24.6 µM) | 50.0 (≈ 98.5 µM) | 3.13 (≈ 6.17 µM) | 50.0 (≈ 98.5 µM) | 0.39 (≈ 0.769 µM) | 1.56 (≈ 3.07 µM) | 6.25 (≈ 12.3 µM) | 12.5 (≈ 24.6 µM) | 12.5 (≈ 24.6 µM) | CC(C)Oc1cccc(C=C(F)OCC2COC(Cn3ccnc3)(c3ccc(Cl)cc3Cl)O2)c1 (stereo not drawn) [Ex. 11] | Minimal inhibitory concentration (MIC) [12]: 25.0 µg/mL (≈ 49.3 µM); Minimal inhibitory concentration (MIC) ([13]; 4 to 48 hours): 12.5 µg/mL (≈ 24.6 µM); Minimal inhibitory concentration (MIC) [14]: 1.56 µg/mL (≈ 3.07 µM); Minimal inhibitory concentration (MIC) [15]: 25.0 µg/mL (≈ 49.3 µM)
